Literature values, collected in US8183365B2, “Synthetic method for ceratamine A and B and analogs thereof” (The Ohio State University, priority 2009, dated 2012).

Conditions: cell-based assay; natural products isolated from sponge Pseudoceratina sp.

Molecule | antimitotic activity
Ceratamine B | possess antimitotic activity
CNc1nc2ccn(C)c(=O)c(Cc3cc(Br)c(OC)c(Br)c3)c-2n1 [ceratamine A, Ceratamine A] | possess antimitotic activity
